From US9789095B2, “Inhibitors of calcium-activated chloride channels” (The Regents of the University of California, priority 2007, dated 2017)

System: calcium-activated chloride channel (CaCC)
Assay: YFP fluorescence plate reader iodide influx assay in HT-29 cells (ATP/carbachol)
Type: cell-based, human
Conditions: semi-quantitative
Description: Screening was performed using a customized screening system (BECKMAN COULTER, Inc., Indianapolis, Ind.) consisting of the SAGIAN Core system integrated with SAMI software, and equipped with an ORCA arm for labware transport, a 96-channel head BIOMEK FX, CO2 incubator, plate washer, bar code reader, delidding station, and two FLUOstar OPTIMA fluorescence plate readers (BMG Labtechnologies, Durham, N.C.), each equipped with syringe pumps and custom excitation/emission filters (500/544 nm; CHROMA, Brattleboro, Vt.).
HT-29 cells expressing YFP-H148Q/I152L were plated in 96-well plates at 70% confluence. Plates were incubated overnight at 37° C., 5% CO2 and then the growth medium was replaced with fresh growth medium. […] YFP fluorescence was measured 1 s before and for 30 s after addition of a PBS-iodide solution (PBS that has 100 mM chloride replaced by iodide) containing carbachol and ATP (100 μM each). Each 96-well plate contained ‘positive’ controls (DMSO vehicle without agonists or test compounds) and ‘negative’ controls (DMSO vehicle with agonists but without test compounds). In some experiments solutions included (individually or in combination): carbachol, ATP, or histamine (at 50, 100, 150 or 200 μM), calcimycin (10 μM), thapsigargin (2 μM) and CFTRinh-172 (20 μM).
Iodide influx (d[I^−]/dt at t=0) was computed from fluorescence time course data by single exponential regression, as described (Ma et al., J. Clin. Invest. 110:1651-8 (2002)). Percentage inhibition was computed as: percentage inhibition=100×(Slopenegative control−Slopetest compound)/(Slopenegative control−Slopepositive control).

Row | SMILES | % inhibition at 25 μM (class B aminothiazoles) | % inhibition at 25 μM (class A aminothiophenes)
1 | FC(F)(F)c1cccc(-c2csc(Nc3ccc(C4CCCCC4)cc3)n2)c1 [CaCCinh-B10, N-(4-cyclohexylphenyl)-4-(3-(trifluoromethyl)phenyl)thiazol-2-amine] | 55% | 
2 | Cc1ccc(-c2nc(Nc3ccc(Cl)cc3Cl)sc2CC(=O)O)cc1 [CaCCinh-B04, 2-(2-(2,4-dichlorophenylamino)-4-p-tolylthiazol-5-yl)acetic acid] | 65% | 
3 | COC(=O)c1c(NC(=O)CCC(=O)O)sc2c1CCC(C(C)(C)C)C2 (centres unmarked) [CaCCinh-A11, 4-(6-tert-butyl-3-(methoxycarbonyl)-4,5,6,7-tetrahydrobenzo[b]thiophen-2-ylamino)-4-oxobutanoic acid] |  | 81%
4 | Cc1ccc(-c2nc(Nc3ccc(Br)cc3)sc2CC(=O)O)c(C)c1 [CaCCinh-B07, 2-(2-(4-bromophenylamino)-4-(2,4-dimethylphenyl)thiazol-5-yl)acetic acid] | 70% | 
5 | Cc1cccc(C(=O)Nc2sc3c(c2C(=O)O)CCCC3)c1 [CaCCinh-A17, 2-(3-methylbenzamido)-4,5,6,7-tetrahydrobenzo[b]thiophene-3-carboxylic acid] |  | 07%
6 | CCNc1nc(-c2ccc(C)cc2)cs1 [CaCCinh-B13, N-ethyl-4-p-tolylthiazol-2-amine] | 20% | 
7 | COc1cccc(C(=O)Nc2sc3c(c2C(=O)O)CCCCC3)c1 [CaCCinh-A15, 2-(3-methoxybenzamido)-5,6,7,8-tetrahydro-4H-cyclohepta[b]thiophene-3-carboxylic acid] |  | 20%
8 | CCCc1sc(Nc2ccc(C(=O)O)cc2)nc1-c1ccc(C)cc1C [CaCCinh-B06, 4-(4-(2,4-dimethylphenyl)-5-propylthiazol-2-ylamino)benzoic acid] | 100% | 
9 | CCOC(=O)c1c(NC(=O)/C=C/C(=O)O)sc2c1CCC(C(C)(C)C)C2 (centres unmarked) [CaCCinh-A07, (E)-4-(6-tert-butyl-3-(ethoxycarbonyl)-4,5,6,7-tetrahydrobenzo[b]thiophen-2-ylamino)-4-oxobut-2-enoic acid] |  | 98%
10 | Cc1ccc(C(=O)Nc2sc3c(c2C(=O)O)CCCCC3)cc1 [CaCCinh-A12, 2-(4-methylbenzamido)-5,6,7,8-tetrahydro-4H-cyclohepta[b]thiophene-3-carboxylic acid] |  | 15%
11 | Cc1ccc(-c2nc(Nc3ccc(C)c(Cl)c3)sc2CC(=O)O)cc1 [CaCCinh-B02, 2-(2-(3-chloro-4-methylphenylamino)-4-p-tolylthiazol-5-yl)acetic acid] | 40% | 
12 | COC(=O)c1c(NC(=O)CCCC(=O)O)sc2c1CCC(C(C)(C)C)C2 (centres unmarked) [CaCCinh-A09, 5-(6-tert-butyl-3-(methoxycarbonyl)-4,5,6,7-tetrahydrobenzo[b]thiophen-2-ylamino)-5-oxopentanoic acid] |  | 45%
13 | Cc1ccc(-c2nc(Nc3cccc(C(F)(F)F)c3)sc2CC(=O)O)cc1 [CaCCinh-B05, 2-(4-p-tolyl-2-(3-(trifluoromethyl)phenylamino)thiazol-5-yl)acetic acid] | 60% | 
14 | Cc1ccccc1C(=O)Nc1sc2c(c1C(=O)O)CCC(C(C)(C)C)C2 (centres unmarked) [CaCCinh-A02, 6-tert-butyl-2-(2-methylbenzamido)-4,5,6,7-tetrahydrobenzo[b]thiophene-3-carboxylic acid] |  | 95%
15 | O=C(Nc1sc2c(c1C(=O)O)CCCCC2)c1ccccc1 [CaCCinh-A13, 2-benzamido-5,6,7,8-tetrahydro-4H-cyclohepta[b]thiophene-3-carboxylic acid] |  | 27%
16 | CC(C)(C)C1CCc2c(sc(NC(=O)c3cccc(Cl)c3)c2C(=O)O)C1 (centres unmarked) [CaCCinh-A03, 6-tert-butyl-2-(3-chlorobenzamido)-4,5,6,7-tetrahydrobenzo[b]thiophene-3-carboxylic acid] |  | 50%
17 | CC(C)(C)C1CCc2c(sc(NC(=O)c3ccccc3)c2C(=O)O)C1 (centres unmarked) [CaCCinh-A04, 2-benzamido-6-tert-butyl-4,5,6,7-tetrahydrobenzo[b]thiophene-3-carboxylic acid] |  | 85%
18 | COc1ccc(NC(=O)c2c(NC(=O)CCC(=O)O)sc3c2CCC(C(C)(C)C)C3)cc1 (centres unmarked) [CaCCinh-A18, 4-(6-tert-butyl-3-(4-methoxyphenylcarbamoyl)-4,5,6,7-tetrahydrobenzo[b]thiophen-2-ylamino)-4-oxobutanoic acid] |  | 35%
19 | Cc1ccc(-c2nc(NC(=O)c3cccc(C)c3)sc2-c2ccccc2)cc1 [CaCCinh-B12, 3-methyl-N-(5-phenyl-4-p-tolylthiazol-2-yl)benzamide] | 03% | 
20 | CC(C)Cc1ccc(Nc2nc(-c3ccc(Oc4ccccc4)cc3)cs2)cc1 [CaCCinh-B09, N-(4-isobutylphenyl)-4-(4-phenoxyphenyl)thiazol-2-amine] | 65% | 
21 | Cc1ccc(-c2nc(Nc3cccc(C(F)(F)F)c3)sc2CC(=O)O)c(C)c1 [CaCCinh-B08, 2-(4-(2,4-dimethylphenyl)-2-(3-(trifluoromethyl)phenylamino)thiazol-5-yl)acetic acid] | 75% | 
22 | CC(C)(C)C1CCc2c(sc(NC(=O)c3ccccc3Cl)c2C(=O)O)C1 (centres unmarked) [CaCCinh-A05, 6-tert-butyl-2-(2-chlorobenzamido)-4,5,6,7-tetrahydrobenzo[b]thiophene-3-carboxylic acid] |  | 75%
23 | Cc1cccc(NC(=O)c2c(NC(=O)CCC(=O)O)sc3c2CCC(C(C)(C)C)C3)c1 (centres unmarked) [CaCCinh-A16, 4-(6-tert-butyl-3-(m-tolylcarbamoyl)-4,5,6,7-tetrahydrobenzo[b]thiophen-2-ylamino)-4-oxobutanoic acid] |  | 42%
24 | CCOc1ccc(Nc2nc(-c3ccc(C)cc3)c(CC(=O)O)s2)cc1 [CaCCinh-B11, 2-(2-(4-ethoxyphenylamino)-4-p-tolylthiazol-5-yl)acetic acid] | 65% | 
25 | CCOC(=O)c1c(NC(=O)C2CCCCC2C(=O)O)sc2c1CCC(C(C)(C)CC)C2 (centres unmarked) [CaCCinh-A10, 2-(3-(ethoxycarbonyl)-6-tert-pentyl-4,5,6,7-tetrahydrobenzo[b]thiophen-2-ylcarbamoyl)cyclohexanecarboxylic acid] |  | 75%
26 | CCOC(=O)c1c(NC(=O)C2CCCCC2C(=O)O)sc2c1CCC(C(C)(C)C)C2 (centres unmarked) [CaCCinh-A08, 2-(6-tert-butyl-3-(ethoxycarbonyl)-4,5,6,7-tetrahydrobenzo[b]thiophen-2-ylcarbamoyl)cyclohexanecarboxylic acid] |  | 80%
27 | Cc1ccc(-c2nc(Nc3cccc(Br)c3)sc2CC(=O)O)cc1 [CaCCinh-B03, 2-(2-(3-bromophenylamino)-4-p-tolylthiazol-5-yl)acetic acid] | 60% | 
28 | CCOC(=O)c1c(NC(=O)CCC(=O)O)sc2c1CCC(C(C)(C)C)C2 (centres unmarked) [CaCCinh-A06, 4-(6-tert-butyl-3-(ethoxycarbonyl)-4,5,6,7-tetrahydrobenzo[b]thiophen-2-ylamino)-4-oxobutanoic acid] |  | 75%
29 | COc1ccc(Nc2nc(-c3ccc(OC)cc3)c(CCC(=O)O)s2)cc1 [CaCCinh-B14, 3-(4-(4-methoxyphenyl)-2-(4-methoxyphenylamino)thiazol-5-yl)propanoic acid] | 18% | 
